From patent US8912186B2, “Allosteric protein kinase modulators” (Universitaet des Saarlandes, priority 2008, dated 2014)

Legend:
Format in all cases: biochemical
PRK2 = PRK2 (Homo sapiens, UniProt Q16513); assay: cell-free kinase activity assay; details: DMSO control set 100%
PDK1 = molecular target: T1, PDK1 (Homo sapiens, UniProt O15530); assay: cell-free kinase activity assay (ATPgamma[32P], T308tide substrate); details: for activity at 50 µM / activity at 200 µM / percent of catalytic activity of the Kinase in the presence of compound as compared to the solvent control (DMSO): PDK1: DMSO control set 100%; for activity at 50 µM / activity at 200 µM: read-out: percent of catalytic activity of the Kinase in the presence of compound as compared to the solvent control (DMSO): PDK1
T1 construct: GST
T1 sequence (O15530 1-556): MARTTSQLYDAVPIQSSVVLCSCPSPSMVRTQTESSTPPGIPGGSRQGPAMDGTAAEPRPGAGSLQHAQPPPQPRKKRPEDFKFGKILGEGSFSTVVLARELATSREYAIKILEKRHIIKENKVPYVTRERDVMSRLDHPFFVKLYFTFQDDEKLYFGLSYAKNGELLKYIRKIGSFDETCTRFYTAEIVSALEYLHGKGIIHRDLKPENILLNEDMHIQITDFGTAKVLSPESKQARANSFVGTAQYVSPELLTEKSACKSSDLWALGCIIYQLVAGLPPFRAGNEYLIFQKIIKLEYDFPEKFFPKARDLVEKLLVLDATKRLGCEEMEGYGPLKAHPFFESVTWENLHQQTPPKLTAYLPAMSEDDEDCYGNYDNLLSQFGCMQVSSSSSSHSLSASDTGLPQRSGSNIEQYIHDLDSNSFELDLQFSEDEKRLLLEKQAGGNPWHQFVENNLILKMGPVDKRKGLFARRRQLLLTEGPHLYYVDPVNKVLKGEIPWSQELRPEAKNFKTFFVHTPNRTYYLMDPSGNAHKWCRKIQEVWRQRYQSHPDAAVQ
Description: Principle of the cell-free kinase activity assay: In general, the activity of the compounds as protein kinase inhibitors or activators may be assayed in vitro (cell free assay is meant here), in vivo or in a cell line. In vitro assays include assays that determine inhibition or activation of either the phosphorylation activity or ATPase activity of the activated protein kinase. Alternate in vitro assays quantitate the ability of the inhibitor to bind to the protein kinase. Compound binding may be measured by radiolabelling the compound prior to binding, isolating the inhibitor or activator/protein kinase complex and determining the amount of radiolabel bound. Alternatively, inhibitor or activator binding may be determined by running a competition experiment where new compounds are incubated with the protein kinase bound to known radioligands. Newer methods comprise fluorescence polarisation assays and surface plasmon resonance dependent techniques. […] The activity and modulation of activity is measured using a standard ATPgamma[^32P] assay as described earlier. […] The concentration of T308tide is 1 mM and the amount of PDK1 used is 200 ng. Reactions are carried out at room temperature. Reaction is started by addition of ATP-Mg mix and stopped with phosphoric acid after 30 min. Stopped reactions were spotted on to phosphocellulose paper (P81, Whatman) and washed. After drying, the radioactivity associated to the band was quantified.

PKBβ = PKBβ (Homo sapiens, UniProt P31751); assay: cell-free kinase activity assay; details: DMSO control set 100%; for remaining activity at 50 µM / remaining activity at 200 µM: read-out: percent of catalytic activity of the Kinase in the presence of compound as compared to the solvent control (DMSO): PKBβ
PKA = PKA (Homo sapiens, UniProt P17612); assay: cell-free kinase activity assay; details: DMSO control set 100%
PKCζ = molecular target: T2, PKCζ (Homo sapiens, UniProt Q05513); assay: cell-free kinase activity assay; details: DMSO control set 100%; for remaining activity at 200 µM / remaining activity at 50 µM: read-out: percent of catalytic activity of the Kinase in the presence of compound as compared to the solvent control (DMSO): PKCζ
T2 sequence (Q05513 1-592): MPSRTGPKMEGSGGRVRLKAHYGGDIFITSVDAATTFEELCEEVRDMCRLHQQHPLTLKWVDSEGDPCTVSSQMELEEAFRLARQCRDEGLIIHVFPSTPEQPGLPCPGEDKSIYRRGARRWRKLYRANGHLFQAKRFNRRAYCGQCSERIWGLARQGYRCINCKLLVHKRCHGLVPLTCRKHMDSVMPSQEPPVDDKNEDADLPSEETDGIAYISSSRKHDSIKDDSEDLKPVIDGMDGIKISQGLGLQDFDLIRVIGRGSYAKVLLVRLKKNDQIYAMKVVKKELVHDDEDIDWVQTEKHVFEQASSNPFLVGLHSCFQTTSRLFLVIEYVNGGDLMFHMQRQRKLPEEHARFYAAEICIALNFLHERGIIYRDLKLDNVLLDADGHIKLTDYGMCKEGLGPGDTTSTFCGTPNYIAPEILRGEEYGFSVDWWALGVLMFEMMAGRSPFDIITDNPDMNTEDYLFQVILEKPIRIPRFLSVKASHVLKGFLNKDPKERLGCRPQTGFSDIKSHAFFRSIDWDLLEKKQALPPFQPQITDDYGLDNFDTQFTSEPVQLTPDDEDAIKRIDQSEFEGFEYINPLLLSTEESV

SGK = molecular target: T3, SGK (Homo sapiens, UniProt O00141); assay: cell-free kinase activity assay; details: DMSO control set 100%; for remaining activity at 200 µM: read-out: percent of catalytic activity of the Kinase in the presence of compound as compared to the solvent control (DMSO): SGK
T3 sequence (O00141 1-431): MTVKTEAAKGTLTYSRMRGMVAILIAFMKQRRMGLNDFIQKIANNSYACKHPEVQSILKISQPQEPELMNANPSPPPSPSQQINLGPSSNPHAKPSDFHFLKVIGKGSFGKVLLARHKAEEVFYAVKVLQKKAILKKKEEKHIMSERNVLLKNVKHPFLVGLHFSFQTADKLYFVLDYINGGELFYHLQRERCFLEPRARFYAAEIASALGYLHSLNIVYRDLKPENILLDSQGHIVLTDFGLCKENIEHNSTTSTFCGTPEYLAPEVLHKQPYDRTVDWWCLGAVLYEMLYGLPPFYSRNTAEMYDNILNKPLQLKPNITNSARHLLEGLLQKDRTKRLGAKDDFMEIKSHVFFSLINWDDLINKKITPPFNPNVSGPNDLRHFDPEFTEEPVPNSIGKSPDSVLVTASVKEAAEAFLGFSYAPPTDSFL

S6K = S6K (Homo sapiens, UniProt P23443); assay: cell-free kinase activity assay; details: DMSO control set 100%; for remaining activity at 200 µM: 200 μM compound
[1] = read-out: percent of catalytic activity of the Kinase in the presence of compound as compared to the solvent control (DMSO): S6K

Chain of S6K (P23443 whole entry): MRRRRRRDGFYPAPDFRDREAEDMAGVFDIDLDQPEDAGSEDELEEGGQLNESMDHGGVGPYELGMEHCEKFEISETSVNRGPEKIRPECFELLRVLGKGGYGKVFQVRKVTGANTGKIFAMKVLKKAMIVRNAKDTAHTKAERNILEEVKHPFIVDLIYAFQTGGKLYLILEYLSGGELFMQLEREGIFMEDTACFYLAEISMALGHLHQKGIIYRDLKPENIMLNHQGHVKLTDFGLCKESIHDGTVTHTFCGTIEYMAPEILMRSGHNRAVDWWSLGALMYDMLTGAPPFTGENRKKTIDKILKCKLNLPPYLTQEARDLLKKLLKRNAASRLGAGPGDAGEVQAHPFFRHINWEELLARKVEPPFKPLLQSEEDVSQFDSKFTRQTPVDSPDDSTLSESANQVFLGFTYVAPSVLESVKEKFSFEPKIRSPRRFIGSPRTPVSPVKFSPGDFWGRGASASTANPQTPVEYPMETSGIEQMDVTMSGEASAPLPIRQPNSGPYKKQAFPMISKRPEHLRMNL
Chain of PRK2 (Q16513 whole entry, species assumed): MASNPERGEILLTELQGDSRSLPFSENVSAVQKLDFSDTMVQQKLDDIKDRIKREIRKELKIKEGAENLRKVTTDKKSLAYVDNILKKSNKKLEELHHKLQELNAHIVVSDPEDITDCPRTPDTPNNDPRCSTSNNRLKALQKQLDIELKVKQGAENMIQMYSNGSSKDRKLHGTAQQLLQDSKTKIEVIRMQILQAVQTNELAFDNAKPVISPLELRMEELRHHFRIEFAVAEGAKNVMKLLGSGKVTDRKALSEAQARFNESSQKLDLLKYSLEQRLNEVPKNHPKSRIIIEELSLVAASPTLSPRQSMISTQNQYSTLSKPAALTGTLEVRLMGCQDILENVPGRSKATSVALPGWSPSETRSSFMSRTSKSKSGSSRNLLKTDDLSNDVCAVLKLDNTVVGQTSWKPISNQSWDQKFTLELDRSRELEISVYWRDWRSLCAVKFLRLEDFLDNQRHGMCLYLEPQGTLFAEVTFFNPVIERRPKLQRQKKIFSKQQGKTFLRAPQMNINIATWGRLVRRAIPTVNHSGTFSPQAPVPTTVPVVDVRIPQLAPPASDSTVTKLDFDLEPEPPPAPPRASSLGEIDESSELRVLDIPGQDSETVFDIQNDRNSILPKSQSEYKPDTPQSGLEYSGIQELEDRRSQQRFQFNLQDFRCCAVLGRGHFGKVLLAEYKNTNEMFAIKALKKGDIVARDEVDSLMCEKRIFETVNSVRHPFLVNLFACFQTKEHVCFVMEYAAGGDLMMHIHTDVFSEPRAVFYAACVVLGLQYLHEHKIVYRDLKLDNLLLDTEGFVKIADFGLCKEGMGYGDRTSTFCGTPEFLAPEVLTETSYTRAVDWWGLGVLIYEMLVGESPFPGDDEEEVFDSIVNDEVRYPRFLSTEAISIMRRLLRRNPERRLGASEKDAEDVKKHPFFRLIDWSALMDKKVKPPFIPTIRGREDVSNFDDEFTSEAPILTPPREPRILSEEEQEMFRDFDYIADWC
Chain of PKBβ (P31751 whole entry, species assumed): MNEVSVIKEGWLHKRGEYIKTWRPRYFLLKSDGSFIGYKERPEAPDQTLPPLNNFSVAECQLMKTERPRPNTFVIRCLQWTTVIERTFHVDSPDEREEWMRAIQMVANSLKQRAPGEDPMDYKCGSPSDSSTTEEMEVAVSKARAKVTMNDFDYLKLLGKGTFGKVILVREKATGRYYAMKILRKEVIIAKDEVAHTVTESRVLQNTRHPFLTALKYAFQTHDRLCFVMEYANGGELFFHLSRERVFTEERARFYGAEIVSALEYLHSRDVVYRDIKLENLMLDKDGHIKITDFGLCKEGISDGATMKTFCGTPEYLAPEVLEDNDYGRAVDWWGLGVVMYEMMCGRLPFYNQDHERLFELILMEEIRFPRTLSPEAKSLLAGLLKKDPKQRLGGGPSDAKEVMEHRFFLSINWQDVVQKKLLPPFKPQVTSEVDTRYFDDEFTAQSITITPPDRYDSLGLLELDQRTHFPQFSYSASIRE

SMILES | percent of catalytic activity of the Kinase in the presence of compound as compared to the solvent control (DMSO): PRK2 (PRK2; 50 μM compound) | percent of catalytic activity of the Kinase in the presence of compound as compared to the solvent control (DMSO): PRK2 (PRK2; 200 μM compound) | activity at 50 µM (PDK1; 50 μM compound) [%] | activity at 200 µM (PDK1; 200 μM compound) [%] | remaining activity at 50 µM (PKBβ; 50 μM compound) [%] | remaining activity at 200 µM (PKBβ; 200 μM compound) [%] | percent of catalytic activity of the Kinase in the presence of compound as compared to the solvent control (DMSO): PKA (PKA; 50 μM compound) | percent of catalytic activity of the Kinase in the presence of compound as compared to the solvent control (DMSO): PKA (PKA; 200 μM compound) | percent of catalytic activity of the Kinase in the presence of compound as compared to the solvent control (DMSO): PKCζ (PKCζ; 50 μM compound) | remaining activity at 200 µM (PKCζ; 200 μM compound) [%] | percent of catalytic activity of the Kinase in the presence of compound as compared to the solvent control (DMSO): SGK (SGK; 50 μM compound) | percent of catalytic activity of the Kinase in the presence of compound as compared to the solvent control (DMSO): SGK (SGK; 200 μM compound) | percent of catalytic activity of the Kinase in the presence of compound as compared to the solvent control (DMSO): S6K (S6K; 50 μM compound) | remaining activity at 200 µM (S6K; [1]) [%] | remaining activity at 50 µM (PKCζ; 50 μM compound) [%] | remaining activity at 200 µM (SGK; 200 μM compound) [%] | percent of catalytic activity of the Kinase in the presence of compound as compared to the solvent control (DMSO): PKBβ (PKBβ; 50 μM compound) | percent of catalytic activity of the Kinase in the presence of compound as compared to the solvent control (DMSO): PKBβ (PKBβ; 200 μM compound) | also measured
O=C(O)CC(Cc1nc2cc(Cl)ccc2[nH]1)c1ccc(Cl)cc1 (stereo not shown) [PS 114, 4-(5-Chloro-2-benzimidazolyl)-3-(4-chlorophenyl)butanoic acid] | no effect | no effect | 400 | 500 | 85 | 80 | no effect | no effect | no effect | 30 | no effect | no effect | no effect | 75 |  |  |  |  | 
O=C(O)/C=C(/c1ccccc1)c1cc2cc(Cl)ccc2s1 [PS 118, (Z)-3-(5-Chloro-2-benzothiophenyl)-3-phenylacrylic acid] | no effect | no effect |  |  | 90 | 25 | no effect | no effect |  | 0 | no effect |  |  | 25 | 10 to 20 | ~20 |  |  | percent of catalytic activity of the Kinase in the presence of compound as compared to the solvent control (DMSO): PDK1 (PDK1; 50 μM compound): no effect; percent of catalytic activity of the Kinase in the presence of compound as compared to the solvent control (DMSO): PDK1 (PDK1; 200 μM compound): no effect; AC50 PDK1 (μM) (PDK1; concentration of the compound required to activate half maximally, n.e.: no effect): n.e.; max. activation of PDK1 (fold) (PDK1; maximum activation achievable, compared to the basal activity of PDK1, n.e.: no effect): n.e.; remaining activity at 50 µM (S6K; 50 μM compound, read-out: percent of catalytic activity of the Kinase in the presence of compound as compared to the solvent control (DMSO): S6K): 85%
O=C(O)CC(CC(=O)N1Cc2ccc(Cl)cc2C1)c1ccc(Cl)cc1 (stereo not shown) [PS 141] | no effect | no effect | 300 | 400 |  |  | no effect | no effect |  | 30 to 40 | no effect |  | no effect | ~80 | 80 | 70 to 80 | no effect | no effect | 
O=C(O)CC(C(=O)N1CCc2ccccc2C1)c1ccc(Cl)cc1 (stereo not shown) [PS 152] | no effect | no effect | 240 | 310 |  |  | no effect | no effect | no effect |  | no effect | no effect | no effect | ~80 |  |  | no effect | no effect | percent of catalytic activity of the Kinase in the presence of compound as compared to the solvent control (DMSO): PKCζ (PKCζ; 200 μM compound): no effect
